Measurements from patent US20260139254A1, “INTERFERING RNA FOR INHIBITING TOP1 GENE EXPRESSION AND USE THEREOF” (JENKEM TECHNOLOGY CO., LTD. (BEIJING), priority 2022, published 2026).

How the values were obtained:
Format in all cases: cell-based, human
TOP1 mRNA [1] = experiment: Inhibitory effect of siTOP1 on TOP1 mRNA in A375 cells (Lipofectamine RNAiMAX transfection, Q-PCR); conditions: A375, siRNA 50 nM, 48 h after transfection; for Relative expression level of gene, mean value: Blank = 100.00, GAPDH reference
Procedure: • 1) On the day before transfection, A375 melanoma cells were seeded into a 24-well plate at 6×10^4 to 8×10^4 cells/well, the culture medium being 500 μL of DMEM containing 10% FBS and 1% Penicillin-Streptomycin, and the plate was placed in an incubator with 5% CO2 at 37° C. for 24 h to allow the cells to adhere to the wall. Three replicate wells were made for each group. • 2) On the day of transfection, the culture medium was changed to 450 μL of DMEM culture medium without antibiotics (containing 10% FBS). • 3) The siRNAs were diluted with 25 μL of Opti-MEM culture medium; the siNC (the siNC (reference: O Sordet et al., 2008) having the target sequence of 5′-TTCTCCGAACGTGTCACGT-3′ (SEQ ID NO: 46)) at the same concentration was the negative control group; Lipofectamine™ RNAiMAX (Lipo) transfection reagent was diluted with another 25 μL of Opti-MEM culture medium and left to stand at room temperature for 5 min; and the two dilutions were uniformly mixed and left to stand at room temperature for 5 min. • 4) 50 μL of the mixed solution described above was added to each well to obtain a final transfection volume of 500 μL. and the working concentration of the siRNA was 50 nM. • 5) After the transfection, the cells were cultured for 48 h and then collected.
• 1) RNA was extracted using an Eastep™ Super total RNA extraction kit; 300 μL of RNA lysis solution and 300 μL of RNA diluent were added; and the mixture was uniformly mixed and then transferred to a 1.5 mL centrifuge tube. • 2) The mixture was centrifuged at 14000 g for 5 min, and the supernatant was carefully pipetted into a new 1.5 mL centrifuge tube. • 3) A 0.5-fold volume of absolute ethanol was added, and the mixture was uniformly mixed by allowing the tube to be repeatedly upside down 15-20 times. Subsequently, the mixture was transferred to a centrifuge column and centrifuged at 12000 g for 1 min. The filtrate was discarded. • 4) 600 μL of RNA wash buffer was added, and the mixture was centrifuged at 12000 g for 1 min. The filtrate was discarded. • 5) 50 μL of DNase I incubation buffer was added, followed by DNA digestion at room temperature for 15 min. • 6) 600 μL of RNA wash buffer was added, the mixture was centrifuged at 12000 g for 1 min, and the filtrate was discarded. This procedure was repeated once. • 7) The mixture was centrifuged at 14000 g for 2 min to remove the residual RNA wash buffer, and then the centrifuge column was placed in a collection tube. • 8) An appropriate amount of RNase-free H2O was added, and the mixture was left to stand at room temperature for 12 min and centrifuged at 14000 g for 1 min. The collected RNA was preserved at −70° C. for later use.
• 1) The mass and concentration of the RNA were detected using NanoDrop™, and an RNA template was prepared as follows: RNase-free H2O was added to 1 μg of RNA to a volume of 10 μL; the mixture was placed at 70° C. for 5 min and then placed in an ice bath for 5 min for later use. • 2) A reaction system was established according to Table 2:
• 3) The reaction system described above was uniformly mixed and centrifuged to collect the liquid at the bottom of a tube, and the mixture was subjected to the procedures of 25° C. for 5 min, 42° C. for 60 min, and 72° C. for 15 min, thereby giving the cDNA product. • 4) A Q-PCR system was prepared according to Table 3, and the level of TOP1 gene was detected:
GAPDH was used as an endogenous reference, and the sequences of the primers used for detection are as follows: […]

A375 melanoma cells = experiment: Inhibition of A375 cell proliferation by siTOP1 (CCK-8); conditions: A375, siRNA 50 nM, 72 h
Procedure: • 1) On the day before transfection, A375 melanoma cells were seeded into a 96-well plate at 2500-3000 cells/well, the culture medium being a total volume of 200 μL of DMEM culture medium containing 7.5% FBS and 1% Penicillin-Streptomycin, and the plate was placed in an incubator with 5% CO2 at 37° C. for 24 h to allow the cells to adhere to the wall. 5 replicate wells were made for each group. • 2) On the day of transfection, the culture medium was changed to 90 μL of reduced serum culture medium without antibiotics and containing 7.5% FBS. • 3) The siRNAs were diluted with an appropriate amount of Opti-MEM culture medium; Lipofectamine™ RNAiMAX (Lipo) transfection reagent was diluted with another appropriate amount of Opti-MEM culture medium and left to stand at room temperature for 5 min; and the two dilutions were uniformly mixed and left to stand at room temperature for 5 min. • 4) 10 μL of the mixed solution described above was added to each well to obtain a final transfection volume of 100 μL, and the working concentration of the siRNA was 50 nM. • 5) The cells were cultured in the incubator with 5% CO2 at 37° C. for 72 h.
After 72 h of transfection, 10 μL of CCK-8 solution was added to each well, and the cells were cultured in the incubator with 5% CO2 at 37° C. for another 4 h. The absorbance value at 450 nm was measured using a microplate reader. Cell viability was calculated according to the following formula: […]

TOP1 mRNA [2] = experiment: Inhibitory effects of modified sequences of siTOP1-1604 on TOP1 mRNA in PC-3 cells; conditions: PC-3, siRNA 50 nM, 48 h after transfection, Blank = 100.00
Procedure: PC-3 human prostate cancer cells were transfected with the modified siTOP1 according to the method in Example 2 at a siRNA working concentration of 50 nM. TOP1 mRNA levels were detected 48 h after the transfection. The control groups were Blank (Opti-MEM at the equal volume), Lipofectamine™ RNAiMAX (Lipo) transfection reagent, and the positive control unmodified siTOP-1604.

Substance | Relative expression level of gene, mean value (TOP1 mRNA [1]) | Inhibition of TOP1 expression (TOP1 mRNA [1]) | further results
siTOP1-267: siRNA targeting TOP1; target SEQ ID NO: 1, sense strand SEQ ID NO: 16, antisense strand SEQ ID NO: 31 (sense CAACGAUUCCCAGAUCGAAUU; antisense UUCGAUCUGGGAAUCGUUGUU; modified_base 20..21 OTHER; thymine) | 21.85 | – | Cell viability (%), mean value (A375 melanoma cells): 58.27%; Inhibition of A375 cell proliferation compared to Blank (A375 melanoma cells): about 42%
siTOP1-628: siRNA targeting TOP1; target SEQ ID NO: 2, sense strand SEQ ID NO: 17, antisense strand SEQ ID NO: 32 (sense CCUCCUAAAGAGGAUAUAAUU; antisense UUAUAUCCUCUUUAGGAGGUU; modified_base 20..21 OTHER; thymine) | 24.27 | – | –
siTOP1-896: siRNA targeting TOP1; target SEQ ID NO: 3, sense strand SEQ ID NO: 18, antisense strand SEQ ID NO: 33 (sense GGAAAUUCCUAGAACAUAAUU; antisense UUAUGUUCUAGGAAUUUCCUU; modified_base 20..21 OTHER; thymine) | 13.05 | – | –
siTOP1-1261: siRNA targeting TOP1; target SEQ ID NO: 4, sense strand SEQ ID NO: 19, antisense strand SEQ ID NO: 34 (sense GGAUUCUGUAUUAUGGAUAUU; antisense UAUCCAUAAUACAGAAUCCUU; modified_base 20..21 OTHER; thymine) | 17.75 | – | –
siTOP1-1282: siRNA targeting TOP1; target SEQ ID NO: 5, sense strand SEQ ID NO: 20, antisense strand SEQ ID NO: 35 (sense CACAAAGAGAGGAUUGCUAUU; antisense UAGCAAUCCUCUCUUUGUGUU; modified_base 20..21 OTHER; thymine) | 6.64 | 93.4% | –
siTOP1-1357: siRNA targeting TOP1; target SEQ ID NO: 6, sense strand SEQ ID NO: 21, antisense strand SEQ ID NO: 36 (sense GGCAUGCUGAAGAGACGAAUU; antisense UUCGUCUCUUCAGCAUGCCUU; modified_base 20..21 OTHER; thymine) | 19.62 | – | –
siTOP1-1459: siRNA targeting TOP1; target SEQ ID NO: 7, sense strand SEQ ID NO: 22, antisense strand SEQ ID NO: 37 (sense CGGCAUGAUAACAAGGUUAUU; antisense UAACCUUGUUAUCAUGCCGUU; modified_base 20..21 OTHER; thymine) | 9.89 | 90.1% | –
siTOP1-1530: siRNA targeting TOP1; target SEQ ID NO: 8, sense strand SEQ ID NO: 23, antisense strand SEQ ID NO: 38 (sense GCUUAACCCUAGUUCACGAUU; antisense UCGUGAACUAGGGUUAAGCUU; modified_base 20..21 OTHER; thymine) | 9.44 | 90.6% | –
siTOP1-1604-m1: Methylation-modified siTOP1-1604; sense strand SEQ ID NO: 51, antisense strand SEQ ID NO: 52 (sense GUGUGGACAAGAUCCGGAATT; antisense UUCCGGAUCUUGUCCACACTT; DNA at T, 2'-O-methyl at CU, RNA at AG, backbone not given here) | – | – | Relative expression level, mean value (TOP1 mRNA [2]): 71.77
siTOP1-1630: siRNA targeting TOP1; target SEQ ID NO: 10, sense strand SEQ ID NO: 25, antisense strand SEQ ID NO: 40 (sense CGAGAAGACUGGAAGUCCAUU; antisense UGGACUUCCAGUCUUCUCGUU; modified_base 20..21 OTHER; thymine) | 17.34 | – | Cell viability (%), mean value (A375 melanoma cells): 43.84%; Inhibition of A375 cell proliferation compared to Blank (A375 melanoma cells): about 56%
siTOP1-1679: siRNA targeting TOP1; target SEQ ID NO: 11, sense strand SEQ ID NO: 26, antisense strand SEQ ID NO: 41 (sense CCCUGUACUUCAUCGACAAUU; antisense UUGUCGAUGAAGUACAGGGUU; modified_base 20..21 OTHER; thymine) | 8.86 | 91.1% | –
siTOP1-1776: siRNA targeting TOP1; target SEQ ID NO: 12, sense strand SEQ ID NO: 27, antisense strand SEQ ID NO: 42 (sense GCACAUCAAUCUACACCCAUU; antisense UGGGUGUAGAUUGAUGUGCUU; modified_base 20..21 OTHER; thymine) | 7.41 | 92.6% | –
siTOP1-2273: siRNA targeting TOP1; target SEQ ID NO: 13, sense strand SEQ ID NO: 28, antisense strand SEQ ID NO: 43 (sense AGGAUGCAAAGACGAAGAAUU; antisense UUCUUCGUCUUUGCAUCCUUU; modified_base 20..21 OTHER; thymine) | 12.54 | – | –
siTOP1-2585: siRNA targeting TOP1; target SEQ ID NO: 14, sense strand SEQ ID NO: 29, antisense strand SEQ ID NO: 44 (sense GGUUUGGGAAAGAUGGAUAUU; antisense UAUCCAUCUUUCCCAAACCUU; modified_base 20..21 OTHER; thymine) | 8.84 | 91.2% | –
siTOP1-2898: siRNA targeting TOP1; target SEQ ID NO: 15, sense strand SEQ ID NO: 30, antisense strand SEQ ID NO: 45 (sense CGAUUAUAUUGGUGCGUUUUU; antisense AAACGCACCAAUAUAAUCGUU; modified_base 20..21 OTHER; thymine) | 7.05 | 93.0% | –
